Measured values reported in patent US8802597B2, “Herbicidal pyrimidines” (E I du Pont de Nemours and Company, priority 2003, dated 2014).
Like-named read-outs stand apart in the source and are kept apart here.

How the values were obtained:
Assay type in all cases: in vivo
[1] = test system: bermudagrass (Cynodon dactylon); assay: Test C pre/postemergence; details: for pest or weed control at 62 g/ha / pest or weed control at 125 g/ha / pest or weed control at 250 g/ha / pest or weed control at 500 g/ha: Cynodon dactylon
How it was run: (§1)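 Greenhouse herbicide screen, visual readout. Compound in solvent/surfactant applied preemergence at planting or postemergence to 1- to 4-leaf plants; assessed at 12–14 days on a 0–100 control scale.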

[2] = test system: common ragweed (Ambrosia elatior); assay: Test C pre/postemergence; details: for pest or weed control at 62 g/ha / pest or weed control at 125 g/ha / pest or weed control at 250 g/ha / pest or weed control at 500 g/ha: Ambrosia artemisiifolia
How it was run: as §1

[3] = test system: ducksalad (Heteranthera limosa); assay: Test E flooded paddy water application; details: Flood, 21 days, scale 0 to 100 (0 no effect, 100 complete control)
How it was run: (§2)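 Response scored visually on a 0–100 scale (100 = complete control) at 21 days against untreated pots. Treatment was into paddy water 3 cm deep over silt loam, with plants at the 2.0–2.5-leaf stage, grown under 16-h light at 29.5/26.7 °C day/night.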

[4] = test system: water seeded rice seedlings (Oryza sativa cv. ‘Japonica-M202’); assay: Test E flooded paddy water application; details: Flood, 21 days, scale 0 to 100 (0 no effect, 100 complete control)
How it was run: as §2

[5] = test system: early watergrass (Echinochloa oryzoides); assay: Test E flooded paddy water application; details: Flood, 21 days, scale 0 to 100 (0 no effect, 100 complete control)
How it was run: as §2

[6] = test system: transplanted rice seedlings (Oryza sativa cv. ‘Japonica-M202’); assay: Test E flooded paddy water application; details: Flood, 21 days, scale 0 to 100 (0 no effect, 100 complete control)
How it was run: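 Greenhouse pots of Tama silt loam with weeds and rice at 2.0–2.5-leaf stage, flooded to 3 cm; compounds applied directly into paddy water, depth maintained. Visual rating versus untreated controls after 21 days, 0 (no effect) to 100 (complete control); 29.5/26.7 °C, 16-h photoperiod.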

[7] = test system: purple redstem (Ammannia coccinea); assay: Test E flooded paddy water application; details: Flood, 21 days, scale 0 to 100 (0 no effect, 100 complete control)
How it was run: as §2

[8] = post-emergence, Postemergence, 62 g ai/ha, scale 0 to 100 (0 no effect, 100 complete control), read-out: Bermudagrass plant response rating
[9] = post-emergence, Postemergence, 125 g ai/ha, scale 0 to 100, read-out: Plant response rating, Bermudagrass
[10] = post-emergence, Postemergence, 250 g ai/ha, scale 0 to 100, read-out: Plant response rating, Bermudagrass
[11] = post-emergence, Postemergence, 500 g ai/ha, scale 0 to 100, read-out: Plant response rating, Bermudagrass
[12] = post-emergence, Postemergence, 62 g ai/ha, scale 0 to 100 (0 no effect, 100 complete control), read-out: Ragweed plant response rating
[13] = post-emergence, Postemergence, 125 g ai/ha, scale 0 to 100 (0 no effect, 100 complete control), read-out: Ragweed plant response rating
[14] = post-emergence, Postemergence, 250 g ai/ha, scale 0 to 100, read-out: Plant response rating, Ragweed
[15] = post-emergence, Postemergence, 500 g ai/ha, scale 0 to 100, read-out: Plant response rating, Ragweed
[16] = Postemergence, 62 g ai/ha, scale 0 to 100 (0 no effect, 100 complete control)
[17] = Postemergence, 125 g ai/ha, scale 0 to 100 (0 no effect, 100 complete control)
[18] = Postemergence, 250 g ai/ha, scale 0 to 100
[19] = Postemergence, 500 g ai/ha, scale 0 to 100
[20] = Preemergence, 16 g ai/ha, scale 0 to 100, 0 no effect, 100 complete control
[21] = Preemergence, 31 g ai/ha, scale 0 to 100, 0 no effect, 100 complete control
[22] = Preemergence, 62 g ai/ha, scale 0 to 100, 0 no effect, 100 complete control
[23] = Preemergence, 125 g ai/ha, scale 0 to 100

SMILES: COC(=O)c1nc(C2CC2)nc(N)c1I [Compound 7]
- pest or weed control at 62 g/ha [1, 8]: 0%
- pest or weed control at 125 g/ha [1, 9]: 0%
- pest or weed control at 250 g/ha [1, 10]: 0%
- pest or weed control at 500 g/ha [1, 11]: 0%
- pest or weed control at 62 g/ha [2, 12]: 25%
- pest or weed control at 125 g/ha [2, 13]: 35%
- pest or weed control at 250 g/ha [2, 14]: 65%
- pest or weed control at 500 g/ha [2, 15]: 75%

SMILES: Cc1ccc(-c2nc(N)c(Cl)c(C(=O)O)n2)cc1 [Compound 91]
- Ducksalad plant response rating ([3]; 32 g ai/ha): 100
- Ducksalad plant response rating ([3]; 64 g ai/ha): 100
- Ducksalad plant response rating ([3]; 125 g ai/ha): 100
- Ducksalad plant response rating ([3]; 250 g ai/ha): 100
- Plant response rating, Ducksalad ([3]; 16 g ai/ha): 100
- Rice, Water Seeded plant response rating ([4]; 32 g ai/ha): 0
- Rice, Water Seeded plant response rating ([4]; 64 g ai/ha): 10
- Rice, Water Seeded plant response rating ([4]; 125 g ai/ha): 10
- Rice, Water Seeded plant response rating ([4]; 250 g ai/ha): 20
- Plant response rating, Rice, Water Seeded ([4]; 16 g ai/ha): 0
- Watergrass, Early plant response rating ([5]; 32 g ai/ha): 0
- Watergrass, Early plant response rating ([5]; 64 g ai/ha): 0
- Watergrass, Early plant response rating ([5]; 125 g ai/ha): 0
- Watergrass, Early plant response rating ([5]; 250 g ai/ha): 0
- Plant response rating, Watergrass, Early ([5]; 16 g ai/ha): 0
- Rice, Transplanted plant response rating ([6]; 32 g ai/ha): 0
- Rice, Transplanted plant response rating ([6]; 64 g ai/ha): 0
- Rice, Transplanted plant response rating ([6]; 125 g ai/ha): 0
- Rice, Transplanted plant response rating ([6]; 250 g ai/ha): 10
- Plant response rating, Rice, Transplanted ([6]; 16 g ai/ha): 0
- Redstem plant response rating ([7]; 32 g ai/ha): 0
- Redstem plant response rating ([7]; 64 g ai/ha): 0
- Redstem plant response rating ([7]; 125 g ai/ha): 30
- Redstem plant response rating ([7]; 250 g ai/ha): 50
- Plant response rating, Redstem ([7]; 16 g ai/ha): 0

SMILES: Nc1nc(C2CC2)nc(C(=O)O)c1Br [Compound 8]
- pest or weed control at 62 g/ha [1, 8]: 50%
- pest or weed control at 125 g/ha [1, 9]: 60%
- pest or weed control at 250 g/ha [1, 10]: 65%
- pest or weed control at 500 g/ha [1, 11]: 75%
- pest or weed control at 62 g/ha ([1]; pre-emergence, Preemergence, 62 g ai/ha, scale 0 to 100, 0 no effect, 100 complete control, read-out: Plant response rating, Bermudagrass): 100%
- pest or weed control at 125 g/ha ([1]; pre-emergence, Preemergence, 125 g ai/ha, scale 0 to 100, read-out: Plant response rating, Bermudagrass): 100%
- pest or weed control at 250 g/ha ([1]; pre-emergence, Preemergence, 250 g ai/ha, scale 0 to 100, read-out: Plant response rating, Bermudagrass): 100%
- pest or weed control at 500 g/ha ([1]; pre-emergence, Preemergence, 500 g ai/ha, scale 0 to 100, read-out: Plant response rating, Bermudagrass): 100%
- pest or weed control at 62 g/ha [2, 12]: 60%
- pest or weed control at 125 g/ha [2, 13]: 80%
- pest or weed control at 250 g/ha [2, 14]: 95%
- pest or weed control at 500 g/ha [2, 15]: 100%
- pest or weed control at 62 g/ha ([2]; pre-emergence, Preemergence, 62 g ai/ha, scale 0 to 100, 0 no effect, 100 complete control, read-out: Plant response rating, Ragweed): 100%
- pest or weed control at 125 g/ha ([2]; pre-emergence, Preemergence, 125 g ai/ha, scale 0 to 100, read-out: Plant response rating, Ragweed): 100%
- pest or weed control at 250 g/ha ([2]; pre-emergence, Preemergence, 250 g ai/ha, scale 0 to 100, read-out: Plant response rating, Ragweed): 100%
- pest or weed control at 500 g/ha ([2]; pre-emergence, Preemergence, 500 g ai/ha, scale 0 to 100, read-out: Plant response rating, Ragweed): 100%

SMILES: CC(=O)NN=Cc1nc(C2CC2)nc(N)c1Br [Compound 51]
- Bermudagrass plant response rating [1, 16]: 0
- Bermudagrass plant response rating [1, 17]: 0
- Plant response rating, Bermudagrass [1, 18]: 0
- Plant response rating, Bermudagrass [1, 19]: 0
- Ragweed plant response rating [2, 16]: 65
- Ragweed plant response rating [2, 17]: 80
- Plant response rating, Ragweed [2, 18]: 80
- Plant response rating, Ragweed [2, 19]: 85

SMILES: COCc1nc(C2CC2)nc(N)c1Br [Compound 11]
- Plant response rating (scale of 0 to 100), Bermudagrass ([1]; Postemergence, 16 g ai/ha): 0
- Plant response rating (scale of 0 to 100), Bermudagrass ([1]; Postemergence, 31 g ai/ha): 0
- Bermudagrass plant response rating [1, 16]: 0
- Plant response rating, Bermudagrass ([1]; Postemergence, 125 g ai/ha, scale 0 to 100): 0
- Plant response rating, Bermudagrass [1, 20]: 0
- Plant response rating, Bermudagrass [1, 21]: 0
- Plant response rating, Bermudagrass [1, 22]: 0
- Plant response rating, Bermudagrass [1, 23]: 0
- Plant response rating (scale of 0 to 100), Ragweed ([2]; Postemergence, 16 g ai/ha): 15
- Plant response rating (scale of 0 to 100), Ragweed ([2]; Postemergence, 31 g ai/ha): 45
- Ragweed plant response rating [2, 16]: 65
- Ragweed plant response rating [2, 17]: 75
- Plant response rating, Ragweed [2, 20]: 0
- Plant response rating, Ragweed [2, 21]: 0
- Plant response rating, Ragweed [2, 22]: 20
- Plant response rating, Ragweed [2, 23]: 45
